Data reported in US10114013B2, “Method for detection of coenzyme Q10” (Berg LLC, priority 2012, dated 2018).
“And” between values parts separate entries of the source, which are not always exact repeats. Identical values can stand only once.

Legend:
PaCa2 cells [1] = test: CoQ10 level in PaCa2 cells after CoQ10 treatment; extraction with methanol alone, LC/MS/MS detection; format: in vitro ADME, human; conditions: 100 μM CoQ10 in isopropanol, replicates 1-3
Protocol: (§1) To further validate the utility of the spectrophotometric method for the quantitative assessment of CoQ10 in biological samples, the experiment described above was repeated using HASMC, HepG2, and PaCa2 cell lines. Further, a second set of cell samples were prepared using each of the three cell types for analysis to determine CoQ10 levels using LC/MS/MS methods routinely used in the art. Briefly, cells were plated and treated with CoQ10 in isopropanol or the CoQ10 proprietary delivery formulation as set forth above, and harvested at 3, 6, or 24 hours after plating. Cell pellets were either extracted using the method set forth above, resuspending the cells in Buffers A and B, and extracting the CoQ10 with Buffer C, or the cell pellets were sent to a diagnostic laboratory (IriSys Research & Development Inc) for quantitative assessment of CoQ10 using extraction with methanol alone followed by LC/MS/MS detection.

HepG2 cells [2] = test: CoQ10 level in HepG2 cells after CoQ10 treatment; Buffer A/B/C extraction, UV spectrophotometry at 275 nm; format: in vitro ADME; conditions: for average level of CoQ10 in cells: Hep2G cells; for CoQ10 / Conc (pM/cell): HepG2 cells, OD275 detection, replicates 1-3
Protocol: (§2) The assay for quantitation of CoQ10 was used to determine the CoQ10 levels in various cells lines after CoQ10 treatment for various times. The cell lines used in the studies were the normal human aortic smooth muscle cells (HASMC), the hepatic cancer cell line HepG2, and the human pancreatic carcinoma cell line PaCa2. All cells lines are commercially available and were maintained according to instruction from the manufacturer/supplier of the cell lines.
200 μl of various concentrations of CoQ10 in Buffer A, or Buffer A alone, were aliquoted into glass vials and 10 μl of Buffer B was added to each vial. Cells treated with various concentrations of CoQ10 were collected at predetermined time points and washed. Cell pellet samples (e.g., about 10^5-10^7 cells) were combined with 200 μl of Buffer A and 10 μl of Buffer B, and the cell pellets were resuspended in the buffer mixture. The sample mixture turned opaque upon mixing Buffers A and B with cells. The mixtures were transferred into glass vials.
The glass vials from step 2 were warmed to 65° C. for 1 minute. The samples turned clear upon heating, and again became opaque upon cooling to room temperature.
A 200 μl aliquot of Buffer C was added to each vial. The vials were again warmed to 65° C. The solution in the vials spontaneously partitioned into two phases, with the second extraction buffer layer (upper layer) containing substantially all of the CoQ10 material.
A 50 μl sample of the upper extraction layer was removed and analyzed on a UV spectrometer at 275 nm. The amount of CoQ10 in each sample was determined by comparison to a standard curve.
In the experimental trials, about 1×10^6 HASMC, HepG2, or PaCa2 cells were plated into each well of a 6 well plate. At the time of plating, the cells were treated with defined concentrations of CoQ10, in triplicate, in isopropanol or a proprietary CoQ10 delivery formulation for 3, 6, or 24 hours. After the defined incubation time, the cells were washed with cold TPBS (PBS with 100 mM Tris, pH 7.4), harvested by trypsinization, washed (2×) with 1 ml of TPBS, and pelleted by centrifugation at 1,500 RPM. Immediately after trypsinization, the cells were counted to determine the total number of viable cells in the sample.
Cell pellets were resuspended in 200 μL of Buffer A (first extraction buffer) and 10 μL of Buffer B (surfactant/detergent). Upon addition of Buffer B, the sample became opaque and a precipitate formed. The resuspended cells were transferred to a borosilicate vial. For control samples not containing cells, the CoQ10 containing solution was added to a glass vial and hexane was added to bring the volume to 200 μl, and 10 μl of Buffer B was then added.
The vials were incubated at 65° C. for 2 minutes in a water bath, with gentle mixing at about half way through the incubation. The sample changed from cloudy to clear during the incubation. The sample was removed from the water bath and 200 μL of Buffer C (second extraction buffer) was added to the vial. The sample partitioned into two phases, polar and non-polar. The top, non-polar, layer was clear, while a white precipitate formed the bottom of the vial. The sample was again heated at 65° C. for 1 minute with gentle mixing about half way through the incubation. The solution was cooled to room temperature and a 75 μL aliquot of the upper phase was placed in a quartz cuvette and analyzed by UV spectrophotometry at a wavelength of 275 nm. The absorption was documented.
For quantitative assessment of CoQ10 in the biological samples, a standard curve was generated essentially as set forth above (Example 2). For each independent determination of CoQ10, the standard curve was generated by making a 50 μM CoQ10 stock solution in hexane and serially diluting of the stock material. Each of the samples from the serial dilution was measured at a wavelength of 275 nm in a UV spectrometer and plotted on a graph. […]

PaCa2 cells [3] = test: CoQ10 level in PaCa2 cells after CoQ10 treatment; Buffer A/B/C extraction, UV spectrophotometry at 275 nm; format: in vitro ADME, human; conditions: 100 μM CoQ10 in isopropanol, OD275 detection, replicates 1-3
Description: as §2
In the experimental trials, about 1×10^6 HASMC, HepG2, or PaCa2 cells were plated into each well of a 6 well plate. […] Immediately after trypsinization, the cells were counted to determine the total number of viable cells in the sample. […]
The vials were incubated at 65° C. for 2 minutes in a water bath, with gentle mixing at about half way through the incubation. […] The solution was cooled to room temperature and a 75 μL aliquot of the upper phase was placed in a quartz cuvette and analyzed by UV spectrophotometry at a wavelength of 275 nm. […]
For quantitative assessment of CoQ10 in the biological samples, a standard curve was generated essentially as set forth above (Example 2). […] Each of the samples from the serial dilution was measured at a wavelength of 275 nm in a UV spectrometer and plotted on a graph.
A power series was used to fit the standard curve from the standard and an equation was determined. […]

HepG2 cells [4] = test: CoQ10 level in HepG2 cells after CoQ10 treatment; extraction with methanol alone, LC/MS/MS detection; format: in vitro ADME; conditions: 100 μM CoQ10 in isopropanol, replicates 1-3
Protocol: as §1

- CoQ10 (PaCa2 cells [1]): 0.371 µM and 1.917 µM and 1.186 µM
- average level of CoQ10 in cells (HepG2 cells [2]; 50 μM in propanol, 3 hours): 14.40 pM/cell
- average level of CoQ10 in cells (HepG2 cells [2]; 50 μM in propanol, 6 hours): 27.07 pM/cell
- average level of CoQ10 in cells (HepG2 cells [2]; 50 μM in propanol, 24 hours): 37.04 pM/cell
- average level of CoQ10 in cells (HepG2 cells [2]; 100 μM in propanol, 3 hours): 25.20 pM/cell
- average level of CoQ10 in cells (HepG2 cells [2]; 100 μM in propanol, 6 hours): 34.74 pM/cell
- average level of CoQ10 in cells (HepG2 cells [2]; 100 μM in propanol, 24 hours): 45.43 pM/cell
- CoQ10 (HepG2 cells [2]; 50 μM CoQ10 in isopropanol): 39.76 µM and 41.84 µM and 51.45 µM
- CoQ10 (HepG2 cells [2]; 100 μM CoQ10 in isopropanol): 36.08 µM and 49.71 µM and 50.51 µM
- CoQ10 (PaCa2 cells [3]): 28.46 µM and 12.5 µM and 4.05 µM
- CoQ10 (HepG2 cells [4]): 2.061 µM and 1.223 µM and 1.599 µM
- Conc (pM/cell) (HepG2 cells [4]): 0.34 pM/cell and 0.24 pM/cell (2×)
SMILES: COC1=C(OC)C(=O)C(C/C=C(\C)CC/C=C(\C)CC/C=C(\C)CC/C=C(\C)CC/C=C(\C)CC/C=C(\C)CC/C=C(\C)CC/C=C(\C)CC/C=C(\C)CCC=C(C)C)=C(C)C1=O [CoQ10, Coenzyme Q10]
- Conc (pM/cell) (PaCa2 cells [1]): 0.31 pM/cell and 0.17 pM/cell and 0.12 pM/cell
- Conc (pM/cell) (HepG2 cells [2]; 50 μM CoQ10 in isopropanol): 29.6 pM/cell and 30.7 pM/cell and 51.9 pM/cell
- Conc (pM/cell) (HepG2 cells [2]; 100 μM CoQ10 in isopropanol): 70.7 pM/cell and 121.2 pM/cell and 101 pM/cell
- Conc (pM/cell) (PaCa2 cells [3]): 1.56 pM/cell and 9.09 pM/cell and 3.2 pM/cell
